Source: ChEMBL document CHEMBL4706551, “Rational design of new multitarget histamine H receptor ligands as potential candidates for treatment of Alzheimer's disease” (Eur J Med Chem, 2020)
Activity calls are given as the source filed them.

Assays:
[1] = target: T1, Amine oxidase [flavin-containing] B (Homo sapiens, UniProt P27338); assay: biochemical; type: cell-based, BTI
T1 sequence (P27338 whole entry): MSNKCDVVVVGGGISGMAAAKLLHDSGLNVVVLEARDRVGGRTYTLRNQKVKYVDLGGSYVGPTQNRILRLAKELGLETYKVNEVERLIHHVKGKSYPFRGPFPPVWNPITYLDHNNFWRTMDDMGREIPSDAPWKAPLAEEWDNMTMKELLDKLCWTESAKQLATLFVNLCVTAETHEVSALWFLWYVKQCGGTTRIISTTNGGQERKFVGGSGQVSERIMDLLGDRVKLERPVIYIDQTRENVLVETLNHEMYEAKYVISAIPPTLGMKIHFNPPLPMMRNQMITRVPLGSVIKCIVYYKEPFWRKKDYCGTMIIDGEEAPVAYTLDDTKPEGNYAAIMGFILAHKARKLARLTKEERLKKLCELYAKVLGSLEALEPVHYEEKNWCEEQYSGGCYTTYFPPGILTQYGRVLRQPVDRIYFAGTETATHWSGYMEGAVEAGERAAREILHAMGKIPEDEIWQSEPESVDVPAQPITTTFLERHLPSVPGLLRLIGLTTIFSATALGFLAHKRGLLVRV
Description: Inhibition of recombinant human MAO-B expressed in baculovirus infected BTI cells using p-tyramine as substrate by fluorometric assay

Mus musculus [2] = assay: Analgesic activity in formalin-induced nociception CD-1 mouse model assessed as reduction in pain behaviour by measuring less licking of formalin injected hind paw compound administered intraperitoneally prior to formalin induction and measured during early phase (0 to 5 mins after formalin injection) by formalin test; type: functional; conditions: CD-1, ip, time 0-5 min
Rattus norvegicus [3] = assay: Antiinflammatory activity against Wistar (Krf:WI) rat assessed as reduction in carragenan-induced paw edema at 22.5 mg/kg treated prior to carrageenan challenge and measured after 24 hrs by plethysmometry relative to control; type: functional
Rattus norvegicus [4] = assay: Analgesic activity in carragenan-induced thermal hyperalgesia model of Wistar (Krf:WI) rat assessed as latency of nociceptive response for radiant heat stimulation at 30 mg/kg treated prior to carrageenan challenge and measured after 2 hrs (reference value: 63.6%); type: functional
Rattus norvegicus [5] = assay: Analgesic activity in carragenan-induced thermal hyperalgesia model of Wistar (Krf:WI) rat assessed as latency of nociceptive response for radiant heat stimulation at 30 mg/kg treated prior to carrageenan challenge and measured after 3 hrs (reference value: 50.3%); type: functional
Rattus norvegicus [6] = assay: Analgesic activity in carragenan-induced thermal hyperalgesia model of Wistar (Krf:WI) rat assessed as latency of nociceptive response for radiant heat stimulation at 30 mg/kg treated prior to carrageenan challenge and measured after 6 hrs (reference value: 43.2%); type: functional
Mus musculus [7] = assay: (§1) Antiallodynic activity in oxaliplatin-induced peripheral neuropathy pain CD-1 mouse model assessed as inhibition of early-phase tactile allodynia by measuring pain sensitivity threshold administered with compound intraperitoneally at 3 hrs after oxaliplatin stimulation and measured after 30 mins by von Frey test; type: functional, organism-based; conditions: dose 15-30 mg/kg
Mus musculus [8] = assay: as §1, with “threshold at 22.5 mg/kg” for “threshold”, “test (reference value: 61.2 %)” for “test”; type: functional; parameters: scale not given: the % may be the effect or the level left; conditions: 0.5 h
[9] = target: Acetylcholinesterase (Electrophorus electricus) (UniProt O42275); assay: Non-competitive inhibition of Electric eel AChE using ATCI as substrate incubated for 5 mins followed by substrate addition and measured after 5 mins by spectrophotometric based Lineweaver-Burk plot analysis; conditions: time 10.0 min
[10] = target: Cholinesterase (Equus caballus) (UniProt P81908); assay: Non-competitive inhibition of equine serum BChE using BTCI as substrate incubated for 5 mins followed by substrate addition and measured after 5 mins by spectrophotometric based Lineweaver-Burk plot analysis; type: cell-free; conditions: time 10.0 min
[11] = target: Cholinesterase (Equus caballus) (UniProt P81908); assay: Non-competitive inhibition of equine serum BChE using BTCI as substrate incubated for 5 mins followed by substrate addition and measured after 5 mins by spectrophotometric based Cornish-Bowden plot analysis; type: cell-free; conditions: time 10.0 min
Cholinesterase = Cholinesterase (Equus caballus, UniProt P81908)
Description: Inhibition of equine serum BChE using BTCI as substrate incubated for 5 mins followed by substrate addition and measured after 5 mins by spectrophotometric based Ellman's method

MAO-A = target: T2, MAO-A (Homo sapiens, UniProt P21397); assay: in vitro; conditions: probe p-tyramine
T2 sequence (P21397 whole entry): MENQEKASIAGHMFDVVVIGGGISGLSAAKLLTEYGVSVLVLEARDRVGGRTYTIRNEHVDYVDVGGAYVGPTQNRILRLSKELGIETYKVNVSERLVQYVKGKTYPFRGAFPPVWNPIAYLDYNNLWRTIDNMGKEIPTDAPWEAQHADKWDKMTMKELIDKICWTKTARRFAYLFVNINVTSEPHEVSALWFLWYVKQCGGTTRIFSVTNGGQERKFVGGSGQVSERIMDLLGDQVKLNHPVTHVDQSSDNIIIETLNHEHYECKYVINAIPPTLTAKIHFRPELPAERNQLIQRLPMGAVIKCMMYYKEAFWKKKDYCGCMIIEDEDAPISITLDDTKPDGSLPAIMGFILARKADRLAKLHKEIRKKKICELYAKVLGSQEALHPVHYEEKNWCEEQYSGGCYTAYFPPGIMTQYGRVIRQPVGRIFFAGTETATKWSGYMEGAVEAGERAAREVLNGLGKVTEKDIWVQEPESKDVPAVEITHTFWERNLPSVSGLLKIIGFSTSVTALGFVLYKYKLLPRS
Description: Inhibition of recombinant human MAO-A expressed in baculovirus infected BTI cells at 1 uM using p-tyramine as substrate by fluorometric assay relative to control

Histamine H3 receptor = Histamine H3 receptor (Homo sapiens, UniProt Q9Y5N1); assay: biochemical
Chain of Histamine H3 receptor (Q9Y5N1 whole entry): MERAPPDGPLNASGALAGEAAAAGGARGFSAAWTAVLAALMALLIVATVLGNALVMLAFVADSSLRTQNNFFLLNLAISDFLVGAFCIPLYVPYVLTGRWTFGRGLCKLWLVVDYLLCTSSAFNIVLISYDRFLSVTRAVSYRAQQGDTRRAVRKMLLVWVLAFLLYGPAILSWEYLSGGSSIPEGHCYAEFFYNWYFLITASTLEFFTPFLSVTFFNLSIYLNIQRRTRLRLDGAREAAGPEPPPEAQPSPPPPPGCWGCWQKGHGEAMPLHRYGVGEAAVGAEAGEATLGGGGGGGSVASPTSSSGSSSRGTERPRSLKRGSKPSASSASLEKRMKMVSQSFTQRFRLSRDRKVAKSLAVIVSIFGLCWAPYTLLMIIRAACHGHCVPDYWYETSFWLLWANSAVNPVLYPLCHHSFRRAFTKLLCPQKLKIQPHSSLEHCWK
Description: Displacement of [3H]N-alpha-methylhistamine from recombinant human histamine H3 receptor expressed in CHO-K1 cells by microbeta scintillation analysis

Chain of Cholinesterase (Equus caballus) (P81908 whole entry): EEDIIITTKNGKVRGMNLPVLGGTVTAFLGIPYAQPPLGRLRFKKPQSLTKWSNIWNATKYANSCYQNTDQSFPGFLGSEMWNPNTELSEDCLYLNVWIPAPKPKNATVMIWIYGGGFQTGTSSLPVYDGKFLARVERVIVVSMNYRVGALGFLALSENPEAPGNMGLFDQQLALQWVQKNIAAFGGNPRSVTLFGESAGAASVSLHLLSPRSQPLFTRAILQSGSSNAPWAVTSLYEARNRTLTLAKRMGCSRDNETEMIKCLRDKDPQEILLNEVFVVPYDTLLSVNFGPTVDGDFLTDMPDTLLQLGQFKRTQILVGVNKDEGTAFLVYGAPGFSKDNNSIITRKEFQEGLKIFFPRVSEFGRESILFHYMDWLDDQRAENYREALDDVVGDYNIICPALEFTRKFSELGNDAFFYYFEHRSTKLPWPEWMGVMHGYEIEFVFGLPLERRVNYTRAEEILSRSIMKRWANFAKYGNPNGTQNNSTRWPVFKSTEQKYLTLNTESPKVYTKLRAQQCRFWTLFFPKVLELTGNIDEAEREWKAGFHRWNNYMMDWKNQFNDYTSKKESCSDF
Chain of Cholinesterase (P81908 whole entry): as above
Chain of Acetylcholinesterase (Electrophorus electricus) (O42275 24-633 limits assumed): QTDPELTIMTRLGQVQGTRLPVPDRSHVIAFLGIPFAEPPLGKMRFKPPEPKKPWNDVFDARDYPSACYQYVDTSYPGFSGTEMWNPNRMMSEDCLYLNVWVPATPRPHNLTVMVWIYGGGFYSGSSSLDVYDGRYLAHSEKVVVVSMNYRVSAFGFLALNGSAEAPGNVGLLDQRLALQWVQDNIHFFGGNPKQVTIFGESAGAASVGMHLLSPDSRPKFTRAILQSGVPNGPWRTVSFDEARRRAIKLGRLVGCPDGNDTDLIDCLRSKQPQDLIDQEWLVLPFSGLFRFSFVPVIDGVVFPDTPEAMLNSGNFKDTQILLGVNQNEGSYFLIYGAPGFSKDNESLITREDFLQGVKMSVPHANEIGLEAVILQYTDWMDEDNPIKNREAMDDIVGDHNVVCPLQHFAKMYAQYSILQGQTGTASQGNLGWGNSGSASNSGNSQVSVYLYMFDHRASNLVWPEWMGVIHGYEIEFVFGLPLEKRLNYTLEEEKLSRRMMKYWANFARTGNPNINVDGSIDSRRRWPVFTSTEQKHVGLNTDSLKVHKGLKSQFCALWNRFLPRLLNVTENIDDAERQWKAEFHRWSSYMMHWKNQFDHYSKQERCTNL

O=c1c2ccccc2oc2ccc(OCCCCCN3CCCCCC3)cc12 showed an IC50 [1] of 0.775 µM, an ED50 (Mus musculus [2]) of 24.7 mg/kg and an inhibition in vivo at 22.5 mg/kg (Rattus norvegicus [3]) of 22.4%. It also gave an Activity (Rattus norvegicus [4]) of 102.8%, an Activity (Rattus norvegicus [5]) of 96% and an Activity (Rattus norvegicus [6]) of 92%. The Activity (Mus musculus [7]) was “Dose-dependent effect”, the Activity (Mus musculus [8]) was 90.6% and the inhibition [9] was “Active”. The inhibition [10] was “Active”, the inhibition [11] was “Active” and the IC50 (Cholinesterase) was 0.88 µM. The inhibition at 1 µM (MAO-A) was 4% and the Ki (Histamine H3 receptor) was 0.17 µM.
